In brackets after ≈: the same amount, converted by molar mass.
Legend:
Test in all cases: In vitro antibacterial activity, MIC by agar dilution
Assay type in all cases: cell-based
Details in all cases: BHI agar, 35-37°C, 20-24 hours, unit assumed
Pseudomonas cepacia 296I = system: Pseudomonas cepacia 296I
Experimental: (§1) Each plate was inoculated with 1:100 (or 1:10 for slow growing strains, primarily Micrococcus and Streptococcus) dilutions of up to 32 different microorganisms, using a Steers replicator block calibrated to deliver approximately 10^4 colony forming units (CFUs). The inoculated plates were incubated at from about 35°C to about 37°C for approximately 20-24 hours. In addition, a control plate using BHI agar containing no test compound was prepared and incubated at the beginning and at the end of each test. Ciprofloxacin was used as the control antibiotic.
(§2) The MIC was defined as the lowest concentration of test compound yielding no growth (a slight haze or sparsely isolated colonies at the inoculum spot) as compared to the growth control containing no test compound.

[1] = system: Staphylococcus epidermidis 3519
Experimental: as §1, §2

[2] = system: Streptococcus bovis A5169
Experimental: as §1, §2

[3] = system: Staphylococcus aureus A5177
Experimental: as §1, §2

[4] = system: Pseudomonas aeruginosa K799/61
Experimental: as §1, §2

[5] = system: Streptococcus pyrogenes EES61
Experimental: as §1, §2

[6] = system: Streptococcus agalactaciae CMX 508
Experimental: as §1, §2

[7] = system: Pseudomonas aeruginosa BMH10
Experimental: as §1, §2

[8] = system: Staphylococcus aureus CMX 553
Experimental: as §1, §2

[9] = system: Enterococcus faecium ATCC 8043
Experimental: as §1, §2

[10] = system: Micrococcus luteus ATCC 9341
Experimental: as §1, §2

Escherichia coli JUHL = system: Escherichia coli JUHL
Experimental: as §1, §2

[11] = system: Klebsiella pneumoniae ATCC 8045
Experimental: as §1, §2

[12] = system: Staphylococcus aureus ATCC 6538P
Experimental: as §1, §2

[13] = system: Streptococcus pyrogenes 2548 INDUC
Experimental: as §1, §2

[14] = system: Micrococcus luteus ATCC 4698
Experimental: as §1, §2

[15] = system: Streptococcus pyrogenes CONST
Experimental: as §1, §2

Escherichia coli KNK 437 = system: Escherichia coli KNK 437
Experimental: as §1, §2

[16] = system: Pseudomonas aeruginosa K799/WT
Experimental: as §1, §2

Escherichia coli DC-2 = system: Escherichia coli DC-2
Experimental: as §1, §2

[17] = system: Enterobacter aerogenes ATCC 13048
Experimental: as §1, §2

[18] = system: Pseudomonas aeruginosa A5007
Experimental: as §1, §2

Escherichia coli SS = system: Escherichia coli SS
Experimental: as §1, §2

[19] = system: Providencia stuartii CMX 640
Experimental: as §1, §2

[20] = system: Acinetobacter calcoaceticus CMX 669
Experimental: as §1, §2

Escherichia coli H560 = system: Escherichia coli H560
Experimental: as §1, §2

[21] = system: Staphylococcus aureus 1775
Experimental: as §1, §2

[22] = system: Staphylococcus aureus NCTC 10649
Experimental: as §1, §2

[23] = system: Staphylococcus aureus 642A
Experimental: as §1, §2

[24] = system: Staphylococcus aureus A-5278
Experimental: as §1, §2

[25] = system: Pseudomonas aeruginosa 2862
Experimental: as §1, §2

SMILES | MIC values (Pseudomonas cepacia 296I) [µg/mL] | MIC values [1] [µg/mL] | MIC values [2] [µg/mL] | MIC values [3] [µg/mL] | MIC values [4] [µg/mL] | MIC values [5] [µg/mL] | MIC values [6] [µg/mL] | MIC values [7] [µg/mL] | MIC values [8] [µg/mL] | MIC values [9] [µg/mL] | MIC values [10] [µg/mL] | MIC values (Escherichia coli JUHL) [µg/mL] | MIC values [11] [µg/mL] | MIC values [12] [µg/mL] | MIC values [13] [µg/mL] | MIC values [14] [µg/mL] | MIC values [17] [µg/mL] | MIC values [18] [µg/mL] | MIC values (Escherichia coli SS) [µg/mL] | MIC values [19] [µg/mL] | also measured
CCc1cc(C(=O)O)c(=O)n2ccc(N3CCN(C)CC3)cc12.Cl [Example 65, 1-Ethyl-8-(4-methylpiperazin-1-yl)-4H-quinolizin-4-one-3-carboxylic acid hydrochloride] | 100 | 25 | 100 | 25 | 25 | 100 | 100 | 25 | 50 | 50 | 25 | 12.5 | 6.2 | 12.5 | 50 | 25 | 12.5 | 25 | 1.56 | > 100 | MIC values [15]: 50 µg/mL; MIC values (Escherichia coli KNK 437): 100 µg/mL; MIC values [16]: 25 µg/mL; MIC values (Escherichia coli DC-2): > 100 µg/mL; MIC values [20]: 25 µg/mL
CCc1cc(C(=O)O)c(=O)n2ccc(N3CCNC(C)C3)cc12.Cl (stereo not shown) [Example 64, 1-Ethyl-8-(3-methyl-1-piperazinyl)-4H-quinolizin-4-one-3-carboxylic acid hydrochloride] | 100 | 50 | 25 | 50 | 6.2 | 50 | 50 | 25 | 50 | 100 | 25 | 6.2 | 6.2 | 25 | 50 | 25 | 6.2 | 50 | 1.56 | > 100 | MIC values [15]: 50 µg/mL; MIC values (Escherichia coli KNK 437): 100 µg/mL; MIC values [16]: 25 µg/mL; MIC values (Escherichia coli DC-2): 100 µg/mL; MIC values (Escherichia coli H560): 12.5 µg/mL; MIC values [20]: 50 µg/mL
O=C(O)c1cc(C2CC2)c2nc(N3CCOCC3)c(F)cn2c1=O [Example 165, 9-Cyclopropyl-3-fluoro-2-(morpholin-1-yl)-6H-6-oxo-pyrido[1,2-a]pyrimidine-7-carboxylic acid] | 25 (≈ 75 µM) | 6.2 (≈ 18.6 µM) | > 100 | 6.2 (≈ 18.6 µM) | 3.1 (≈ 9.3 µM) | > 100 | > 100 | 50 (≈ 150 µM) | 6.2 (≈ 18.6 µM) | > 100 | > 100 | 3.1 (≈ 9.3 µM) | 0.39 (≈ 1.17 µM) | 6.2 (≈ 18.6 µM) | > 100 | > 100 | 3.1 (≈ 9.3 µM) | 25 (≈ 75 µM) | 0.2 (≈ 0.6 µM) | > 100 | MIC values [21]: > 100 µg/mL; MIC values [22]: 6.2 µg/mL (≈ 18.6 µM); MIC values [15]: > 100 µg/mL; MIC values (Escherichia coli KNK 437): > 100 µg/mL; MIC values [23]: 6.2 µg/mL (≈ 18.6 µM); MIC values [16]: 25 µg/mL (≈ 75 µM); MIC values (Escherichia coli DC-2): > 100 µg/mL; MIC values (Escherichia coli H560): 3.1 µg/mL (≈ 9.3 µM); MIC values [24]: 6.2 µg/mL (≈ 18.6 µM); MIC values [20]: 6.2 µg/mL (≈ 18.6 µM)
NC1CCN(c2nc3c(C4CC4)cc(C(=O)O)c(=O)n3cc2F)C1 (stereo not shown) [Example 158, 2-(3-Aminopyrrolidin-1-yl)-9-cyclopropyl-3-fluoro-6H-6-oxo-pyrido[1,2-a]pyrimidine-7-carboxylic acid] |  | 0.39 (≈ 1.17 µM) | 6.2 (≈ 18.7 µM) |  |  |  |  |  |  |  |  | 0.02 (≈ 0.0602 µM) | 0.05 (≈ 0.15 µM) |  | 0.78 (≈ 2.35 µM) |  | 0.1 (≈ 0.301 µM) | 0.2 (≈ 0.602 µM) | 0.01 (≈ 0.0301 µM) | 3.1 (≈ 9.33 µM) | MIC values [25]: 50 µg/mL (≈ 150 µM); MIC values [21]: 100 µg/mL (≈ 301 µM); MIC values [23]: 0.2 µg/mL (≈ 0.602 µM); MIC values [24]: 0.78 µg/mL (≈ 2.35 µM)

Source: patent EP0527889B1, “QUINOLIZINONE TYPE COMPOUNDS” (priority 1990, dated 1991)
